Source: US20230270773A1, “METHODS OF TREATING CANCER WITH A STING AGONIST” (Immunesensor Therapeutics, Inc., priority 2019, published 2023)
“Also recorded” adds a separate entry of the source.

Key:
[1] = Pharmacokinetics after intratumoral administration in B16F10 tumor bearing mice; format: in vivo; conditions: female B16F10 tumor bearing mice
Description: The nonclinical pharmacokinetics (PK) of subcutaneously, intravenously, or intratumorally administered Compound A was investigated in mice at the doses of 0.1 and/or 0.5 mg/kg.

Protein binding in vitro = format: in vitro ADME; conditions: human
[2] = Metabolic stability in in vitro systems; format: in vitro ADME, and monkey; conditions: human, rat, mouse, dog, monkey
[3] = Compound A levels in plasma after dosing of mice; format: in vivo, C57BL/6 mice
Description: The pharmacokinetic/pharmacodynamic properties of Compound A were evaluated in C57BL/6 mice following dosing by subcutaneous, intramuscular, or intravenous routes of administration. Blood was collected post-dosing for the measurement of Compound A and cytokine levels in plasma.

MC38 (colon) = assay: MC38 syngeneic tumor model; format: in vivo, mouse
AG104 (fibrosarcoma) = assay: AG104 syngeneic tumor model, intratumoral; format: in vivo, mouse
Description: Note that several of these tumors such as B16F10, 4T1, LL2 and AG104 are known to be refractory to antibodies against PD-1, PD-L1, or CTLA-4. In the B16F10 tumor model, twice weekly injection of Compound A for two weeks was efficacious in a dose-dependent manner in the range from 0.1 µg to 10 µg (0.005-0.5 mg/kg).

B16 melanoma = assay: Abscopal effect, B16 melanoma bilateral tumor model; format: in vivo, mice; conditions: intratumoral into primary tumor, 0.15 and 0.5 mg/kg
Description: (§1) An abscopal effect is an immune-mediated phenomenon wherein direct treatment of a primary tumor can lead to a response in a distant tumor. The potential abscopal effect of Compound A was evaluated in B16 melanoma and AG104A fibrosarcoma tumor models evaluating mice bearing tumors on both right flank (primary tumor) and left flank (secondary tumor). In both models, Compound A was administered intratumorally into the primary tumor on days 5, 8, 11 and 15 after tumor inoculation. The secondary tumor was not treated.

AG104A fibrosarcoma = assay: Abscopal effect, AG104A fibrosarcoma bilateral tumor model; format: in vivo, C3B6F1 mice; conditions: intratumoral into primary tumor, PD-L1 antibody 200 µg
Description: C3B6F1 mice (N=8) bearing AG104A tumors on both left and right flanks were treated intratumorally on the right flank (primary) with Compound A on Days 5, 8, 11, and 15 after tumor inoculation. Tumors on the left flank (distant) were not treated.
as §1

[4] = system: IFNα, IL-6, TNFα and other cytokines; assay: Plasma cytokine levels in cynomolgus monkeys; format: in vivo; conditions: for plasma IFNα levels: male and female
[5] = 1 mg/kg/day, 1.5, 3 and 6 hours postdose

For `Nc1nc2c(ncn2[C@@H]2O[C@@H]3COP(=O)(O)OC4C(O)[C@H](n5cnc6c(N)ncnc65)O[C@@H]4COP(=O)(O)OC2C3OCC(F)(F)F)c(=O)[nH]1` (stereo partly drawn) [Compound A], the Frel in plasma ([1]; intratumoral 0.1 mg/kg) was 105%, the Frel in plasma ([1]; intratumoral 0.5 mg/kg) was 112% and the fraction unbound (Protein binding in vitro) was 0.511. The half-life [2] was > 2 h, the concentration at 15 minutes ([3]; C57BL/6, mouse, plasma, 15 minutes after injection, subcutaneous, intramuscular or intravenous, read-out: Compound A level in plasma) was 5 to 15 µM and the “Compound A in circulation” value ([3]; at 15 minutes, subcutaneous or intratumoral) was “detectable”. The “Levels of Compound A” value ([3]; by 1 hour, subcutaneous, intratumoral or intravenous) was “below the limit of quantitation (BLOQ)”, the “Compound A level in plasma” value ([3]; one hour after administration) was “below the limit of detection” and the “Cmax, comparison between administration routes” value ([3]; subcutaneous, intramuscular, intravenous) was “not significantly different between administration routes”. For the same molecule, the tumor growth inhibition (MC38 (colon); intratumoral) was “highly effective in inhibiting tumor growth”, the anti-tumor efficacy (MC38 (colon); subcutaneous) was “also effective” and the tumor growth inhibition (AG104 (fibrosarcoma)) was “highly effective in inhibiting tumor growth”. The survival (B16 melanoma) was “survival was significantly prolonged”, the “tumor growth/volume, primary and distant tumors” value (B16 melanoma; days 5, 8, 11, 15) was “tumor growth was suppressed in both primary and distant tumors; also recorded: significantly decreased” and the “tumor growth/volume, primary and distant tumors” value (AG104A fibrosarcoma; 0.15 and 0.5 mg/kg, days 5, 8, 11, 15) was “tumor growth was suppressed in both primary and distant tumors; also recorded: significantly decreased”. For the same molecule, the survival (AG104A fibrosarcoma) was “survival was significantly prolonged; also recorded: increases the survival”, the “plasma IL-6 levels” value ([4]; 0.1 mg/kg/day, 3 and 6 hours postdose) was “Increased plasma levels of IL-6” and the IP-10 ([4]; 0.1 mg/kg/day, 3 hours post dosing) was “Slight elevation of IP-10”. For the same molecule, the TNFα levels ([4]; 0.1 mg/kg/day, 6 hours postdose in male, 3 and 6 hours in female) was “Elevated levels of TNFα”, the TNFα levels ([4]; 0.1 mg/kg/day, 24 hours post dosing) was “returned to non-detectable level” and the IL-6 levels ([4]; 0.1 mg/kg/day, 24 hours postdose) was “returned to a non-detectable level”. The “plasma IFNα levels” value ([4]; 0.1 mg/kg/day) was “did not cause significant increase”, the “plasma IL-6 levels” value ([4]; 0.6 mg/kg/day, 3 and 6 hours postdose) was “Increased plasma levels of IL-6” and the TNFα levels ([4]; 0.6 mg/kg/day, 6 hours postdose in male, 1.5, 3, 6 hours in female) was “Elevated levels of TNFα”. For the same molecule, the “plasma IFNα levels” value ([4]; 0.6 mg/kg/day) was “did not cause significant increase”, the IP-10 ([4]; 0.6 mg/kg/day, throughout the time course) was “No significant elevation of IP-10” and the IP-10 level [4, 5] was “no increased IP-10 level”. For the same molecule, the TNFα levels [4, 5] was “Elevated TNFα levels”, the IFNα levels ([4]; 1 mg/kg/day, 1.5 and 3 hours postdose) was “did not cause significant change” and the IL-6 levels ([4]; 1 mg/kg/day, 3 and 6 hours postdose) was “Marked increase in IL-6 levels”. For the same molecule, the IFNα levels ([4]; 1 mg/kg/day, 6 hours postdose) was “elevated levels”, the IFNα levels ([4]; 3 mg/kg and 10 mg/kg, 12 hours after dosing) was “decreased 12 hours after dosing, but did not return to pre-dose levels” and the IFNα levels ([4]; 10 mg/kg group) was “Higher levels of IFNα”. The “IL-12, G-CSF, and IFNγ levels” value ([4]; Phase II) was “sporadic increases”, the “changes in MCP-1 and IP-10 levels” value ([4]; Phase II) was “suggestive of an inflammatory response with resolution by 24 hours postdose” and the “plasma IL-1ra, IL-6, and IFNα cytokine levels” value ([4]; Phase II, 3 mg/kg, 3 and 6 hours) was “dose-dependent increases”.
